Data set [1] concerns alkaline protease from Bacillus sp. PS719. The following applies: cited from earlier work.
Data set [2] relates to obese (NZO×NON)F1 male mice. The following applies: chronic treatment; cited from earlier work.
In data set [3] the target is antibodies specific for the respective peptide antigens. The following applies: antibody against the listed peptide; value taken from the reference; read-out: Affinity KD; cited from earlier work.
The test system of data set [4] is antibody P1 (specific for PSA-derived PET EPAELTDA). In words: Peptide competition assay, antibody P1. The data set is classed as binding. The conditions noted are these: for fold higher concentration at which nearest neighbor is still ineffective: relative to antigen PET EPAELTDA
How it is done: (§1) In certain embodiments of the invention, a peptide competition assay may be used to determine the binding specificity of a capture agent towards its target PET, as compared to several nearest neighbor sequences of the PET. The same protocol can be adapted for small molecule-based competition assay
(§2) For a typical peptide competition assay, the following illustrative protocol may be used: 1 μg/100 μl/well of each target peptide is coated in Maxisorb Plates with coating buffer (carbonate buffer, pH 9.6) overnight at 4° C., or 1 hour at room temperature. The plates are washed with 300 μl of PBST (1×PBS/0.05% Tween 20) for 4 times. Then 300 μl of blocking buffer (2% BSA/PBST) is added and the plates are incubated for 1 hour at room temperature. Following blocking, the plates are washed with 300 μl of PBST for 4 times.
Synthesized competition peptides are dissolved in water to a final concentration of 2 mM solution. Serial dilution of competition peptides (for example, from 100 pM to 100 μM) in digested human serum are prepared. These competition peptides at particular concentrations are then mixed with equal amounts of primary antibodies against the target peptide. These mixtures are then added to plate wells with immobilized target peptides respectively. Binding is allowed to proceed for 2 hours at room temperature. The plates are washed with 300 μl of PBST for 4 times. Then labeled secondary antibody against the primary antibody, such as 100 μl of 5,000× diluted anti-rabbit-IgG-HRP, is added and incubated for 1 more hour at room temperature. The plates are washed with 300 μl of PBST for 6 times. For detection of the HRP label activity, add 100 μl of TMB substrate (for HRP) and incubate for 15 minutes at room temperature. Add 100 μl of stop buffer (2N HCL) and read the plates at OD450. A peptide competition curve is plotted using the ABS at OD450 versus the competitor peptide concentrations. […]

Data set [5] concerns antibody C1 (specific for CRP-derived PET YEVQGEVF). As to the kind of experiment: Peptide competition assay, antibody C1. The class given is binding. The conditions noted are these: competitor peptide against immobilized PET, neighbors completely ineffective even at the stated concentration, read-out: half-maximum effective peptide concentration. How it is done:
as §1, §2
Synthesized competition peptides are dissolved in water to a final concentration of 2 mM solution. Serial dilution of competition peptides (for example, from 100 pM to 100 μM) in digested human serum are prepared. These competition peptides at particular concentrations are then mixed with equal amounts of primary antibodies against the target peptide. These mixtures are then added to plate wells with immobilized target peptides respectively. Binding is allowed to proceed for 2 hours at room temperature. […] Add 100 μl of stop buffer (2N HCL) and read the plates at OD450. […]

The target of data set [6] is PET-specific antibody used in the peptide competition assay for the Troponin T peptide …. As to the kind of experiment: peptide competition ELISA with immobilized peptide, in 10mM digested serum proteins, ABS 450.
Data set [7] has as its target antibody C1, specific for the CRP-derived 8-mer PET sequence YEVQGEVF
In words: peptide competition assay, soluble PET against immobilized PET for antibody C1.

Data set [8] has the same target. As to the kind of experiment: peptide competition ELISA: soluble peptide series against the same immobilized peptide for a fixed concentration of antibody, in 10 mM digested serum proteins, HRP secondary antibody, ABS 450.
The target in data set [9] is antibody used in the PET-based peptide competition assay for the Survivin peptide …. In words: Survivin Peptide Competitive Assay, ABS 450.
For data set [10], the target named is antibody C2, specific for the CRP PET sequence GYSIFSYA
As to the kind of experiment: peptide competition ELISA: soluble peptide series against the same immobilized peptide for a fixed concentration of antibody, in 10 mM digested serum proteins, HRP secondary antibody, ABS 450.

Setting [11] is: liberation of p-nitroaniline from the substrate.

Turning to `O=c1oc(Cl)c(Cl)c2ccccc12` [DCI, 3,4-dichloroisocoumarin], the “inhibition of protease activity” value in data set [1] was “completely inhibited”.
Turning to `O=S(=O)(F)Cc1ccccc1` [PMSF, phenylmethylsulfonyl fluoride], the “inhibition of protease activity” value in [1] is on record as “completely inhibited”.
As for `Cc1ccc(S(=O)(=O)N[C@@H](CCCCN)C(=O)CCl)cc1` [TLCK, N-α-p-tosyl-L-lysine chloromethyl ketone], in data set [1], the “inhibition of protease activity” value is “completely inhibited”.
As for `CN(CCOc1ccc(CC2SC(=O)NC2=O)cc1)c1ccccn1` (stereo not drawn) [rosiglitazone], the “effect on hepatic steatosis” value in data set [2] is recorded as “markedly exacerbated”.
Regarding CRGTGSYNRSSFESSSG, in data set [3], the Kd (commonly a measure of binding affinity in units of concentration) was 2.8 nM.
On to “DPTQLTDA [nearest-neighbor 8-mer of EPAELTDA found in the human proteome]”, for which the “fold higher concentration at which nearest neighbor is still ineffective” value in [4] is on record as 25,000 fold.
Consider EPAELTDA, for which the IC50 in data set [4] (competitor peptide against immobilized PET, read-out: half-maximum effective peptide concentration) is roughly 40 nM.
Turning to “EPVELTSA [nearest-neighbor 8-mer of EPAELTDA found in the human proteome]”, the “fold higher concentration at which nearest neighbor is still ineffective” value in [4] was 25,000 fold.
For GATPEDLNQKLAGN, the Kd in data set [3] was 1.4 nM.
For the molecule “HHHHH [HHHHH (HIS tag), 5-aa HIS tag peptide]”, the Kd in [3] is 25 nM.
For the molecule “MDYKAFDN (FLAG tag) [8-aa FLAG tag peptide]”, in data set [3], the Kd is 2.3 nM.
On to “N-carbobenzoxy (CBZ)-L-arginine-p-nitroanilide”, for which, in data set [1] (setting [11]), the Km (in general, the concentration of substrate that gives half-maximal velocity) is 600 µM and the Vmax is 1.0 μmol min^−1 mg protein^−1.
As for “NYRAYATEPHAKKKS [15-aa peptide antigen of a literature antibody (EJB 267:1819, 2000)]”, the Kd in [3] was 0.5 nM.
On to PQSDPSVEPPLS, for which the Kd in [3] was 16 nM.
Take “RYDIEAKVTK [10-aa peptide antigen of a literature antibody (JI 169:6992, 2002)]”: in [3], the Kd is 3.5 nM.
With YDVPDYAS (HA tag), in data set [3], the Kd was 2 nM.
YEVQGEVF: in data set [5], the IC50 was roughly 1000 nM.

B1: Troponin T tryptic PET-peptide … (peptide)
peptide: SFMPNLVPPK
Molecule B1 displayed an IC50 (read off the curve) in [6] of 20 nM.

B2: CRP-derived 8-mer PET peptide YEVQGEVF (peptide)
peptide: YEVQGEVF
The molecule B2 gave an IC50 in data set [7] of 1000 nM. The Detection Limit in data set [8] was found to be 100 pM.

B3: Survivin peptide … (peptide)
peptide: MGAPTLPPAWQPF
In the case of B3, in data set [9], the IC50 (read off the curve) was 20 nM.

B4: CRP PET peptide GYSIFSYA (peptide)
peptide: GYSIFSYA
In data set [10], B4 displayed a Detection Limit of 1 nM and an IC50 (read off the curve) of 1000 nM.

(Values after patent US20050255491A1, “Small molecule and peptide arrays and uses thereof” (priority 2003, published 2005).)
